15 compounds from patent US9296741B2, “Bromodomain inhibitors” (priority 2012, dated 2016) can be followed below.

In general, Ki refers to a dissociation constant, usually derived from enzyme kinetics or from competition with a known ligand. Higher therefore signals weaker binding.

For data set [1], the system named is LPS induced IL-6 production. Nature of the data set: LPS (lipopolysaccharide) induced IL-6 production mouse assay. It is filed as in vivo. The settings on record: 3 mg/kg oral, 1 h before LPS, serum IL-6 2 h after LPS; for inhibition in vivo at 3 mg/kg: Mus musculus, read-out: Inhibition of LPS induced IL-6 production in Mice, % inhibition at 3 mg/kg.
For data set [2], the target named is human BRD4 first bromodomain (BDI_K57-E168) (Homo sapiens (Human), UniProt O60885). Nature of the data set: TR-FRET bromodomain binding assay, BRD4 first bromodomain. (In TR-FRET formats the signal depends on donor and acceptor labels being close together.)
Data set [3] is described as follows: Human liver microsome stability assay. The settings on record: human, microsomes, pH 7.4; for half-life at 0.5 μM: both sexes. It is filed as in vitro ADME. (Liver microsomes are a subcellular fraction often used to study metabolism.)
The target in data set [4] is human BRD4 second bromodomain (BDII_E352-M457) (Homo sapiens (Human), UniProt O60885). Nature of the data set: TR-FRET bromodomain binding assay, BRD4 second bromodomain.
In data set [5] the test system is breast cancer cell line MX-1. Kind of data set: MX-1 cell line proliferation assay. It is filed as cell-based, human. The conditions noted are these: MX-1 cells, 3-day proliferation, Cell Titer Glo, read-out: Cellular proliferation: EC50. (In ATP-based viability assays light output follows the ATP content of the culture.)
Data set [6] in a line: Rat liver microsome stability assay. It is filed as in vitro ADME. The settings on record: for half-life at 0.5 μM: rat liver microsomes (male Sprague-Dawley), 0.5 μM test compound, 0.25 mg/mL microsomal protein, pH 7.4, 37° C., read-out: Stability in rat liver microsomes (t1/2 in minutes).
A short description of data set [7]: Mouse liver microsome stability assay. The conditions noted are these: microsomes, pH 7.4; for half-life at 0.5 μM: male, CD1, mouse. It is filed as in vitro ADME.
For data set [8], the system named is OPM-2 human multiple myeloma xenograft tumors. Kind of data set: animal or person. The settings on record: Mus musculus, OPM-2, iv, 1 mg/kg/day, IV, Q4Dx3, vehicle B.

Read-outs that look alike come from different tables or passages of the source. A value given as a limit tells only on which side of the number the result lay.

As to `CCS(=O)(=O)Nc1ccc(OCC(C)(C)C)c(-c2cn(C)c(=O)c3[nH]ccc23)c1` [Example 144, N-[4-(2,2-dimethylpropoxy)-3-(6-methyl-7-oxo-6,7-dihydro-1H-pyrrolo[2,3-c]pyridin-4-yl)phenyl]ethanesulfonamide], the inhibition in vivo at 3 mg/kg in data set [1] is 48%. The inhibition constant Ki in data set [2] was 13.6 nM; in data set [4] it was 17.8 nM. Also, the half-life at 0.5 μM in data set [3] was 18 min; in data set [6], 19 min; in data set [7], 17 min. Also, in data set [5] (Homo sapiens, MX1, 72 h), the EC50 came out at 76.9 nM.
Turning to `Cn1cc(-c2cc(S(C)(=O)=O)ccc2Oc2ccc(F)cc2F)c2cc[nH]c2c1=O` [Example 138, 4-[2-(2,4-difluorophenoxy)-5-(methylsulfonyl)phenyl]-6-methyl-1,6-dihydro-7H-pyrrolo[2,3-c]pyridin-7-one], the inhibition in vivo at 3 mg/kg in data set [1] was found to be 72%. In addition, the Ki in data set [2] is 16.7 nM; in data set [4], 9.5 nM. Further, the half-life at 0.5 μM in data set [3] is 52 min; in data set [6], 51 min; in data set [7], 45 min. The EC50 in data set [5] (Homo sapiens, MX1, 72 h) came to 85.1 nM.
As to `CNS(=O)(=O)Nc1ccc(Oc2ccc(F)cc2F)c(-c2cn(C)c(=O)c3[nH]ccc23)c1` [Example 65, N-[4-(2,4-difluorophenoxy)-3-(6-methyl-7-oxo-6,7-dihydro-1H-pyrrolo[2,3-c]pyridin-4-yl)phenyl]-N′-methylsulfuric diamide], the inhibition in vivo at 3 mg/kg in data set [1] came to 63%. Also, the Ki in data set [2] is 11.6 nM; in data set [4] it was 4.9 nM. The half-life at 0.5 μM in data set [3] was 88 min; in data set [6] it was greater than 120 min; in data set [7], 11 min. Also, the EC50 in data set [5] (Homo sapiens, MX1, 72 h) stood at 25.5 nM.
In the case of `Cn1cc(-c2cc(NS(C)(=O)=O)ccc2Oc2ccc(F)c(F)c2)c2cc[nH]c2c1=O` [Example 48, N-[4-(3,4-difluorophenoxy)-3-(6-methyl-7-oxo-6,7-dihydro-1H-pyrrolo[2,3-c]pyridin-4-yl)phenyl]methanesulfonamide], in data set [1], the inhibition in vivo at 3 mg/kg turned out to be 62%. The inhibition constant Ki in data set [2] was determined as 2.3 nM; in data set [4], 3.3 nM. Besides, the half-life at 0.5 μM in data set [3] turned out to be 37 min; in data set [6] it was 32 min; in data set [7] it was 35 min. Also, the EC50 in data set [5] (Homo sapiens, MX1, 72 h) came out at 23.5 nM.
As to `CN(C)S(=O)(=O)c1cnc(NCC2CC2)c(-c2cn(C)c(=O)c3[nH]ccc23)c1` [Example 245, 6-[(cyclopropylmethyl)amino]-N,N-dimethyl-5-(6-methyl-7-oxo-6,7-dihydro-1H-pyrrolo[2,3-c]pyridin-4-yl)pyridine-3-sulfonamide], in data set [1], the inhibition in vivo at 3 mg/kg stood at 71%. Further, the inhibition constant Ki in data set [2] was 2.5 nM; in data set [4], 3.7 nM. Besides, the half-life at 0.5 μM in data set [3] stood at 32 min; in data set [6], 24 min; in data set [7], 12 min. Also, the EC50 in data set [5] (Homo sapiens, MX1, 72 h) worked out at 26.9 nM.
For the compound `Cn1cc(-c2cc(NS(C)(=O)=O)ccc2Oc2cccnc2)c2cc[nH]c2c1=O` [Example 11, N-[3-(6-methyl-7-oxo-6,7-dihydro-1H-pyrrolo[2,3-c]pyridin-4-yl)-4-(pyridin-3-yloxy)phenyl]methanesulfonamide], the inhibition in vivo at 3 mg/kg in data set [1] was 34%. Besides, the results for the Ki in data set [2] and in data set [4] were 1.8 nM and 2.4 nM, respectively. In addition, the half-life at 0.5 μM in data set [3] stood at 48 min; in data set [6], 19 min; in data set [7] it was 27 min. The EC50 in data set [5] (Homo sapiens, MX1, 72 h) worked out at 34.2 nM.
As for `Cn1nc(-c2cc(NS(C)(=O)=O)ccc2Oc2ccc(F)cc2F)c2cc[nH]c2c1=O` [Example 159, N-[4-(2,4-difluorophenoxy)-3-(6-methyl-7-oxo-6,7-dihydro-1H-pyrrolo[2,3-d]pyridazin-4-yl)phenyl]methanesulfonamide], the inhibition in vivo at 3 mg/kg in data set [1] was determined as 58%. In addition, the inhibition constant Ki was 37 nM in data set [2] and 20.7 nM in data set [4]. The half-life at 0.5 μM in data set [3] came to 89 min; in data set [6], 107 min; in data set [7], 59 min. In addition, in data set [5] (Homo sapiens, MX1, 72 h), the EC50 worked out at 62.4 nM.
With `Cn1cc(-c2cc(CS(C)(=O)=O)ccc2Oc2ccc(F)cc2F)c2cn[nH]c2c1=O` [Example 321, 4-{2-(2,4-difluorophenoxy)-5-[(methylsulfonyl)methyl]phenyl}-6-methyl-1,6-dihydro-7H-pyrazolo[3,4-c]pyridin-7-one], in data set [1], the inhibition in vivo at 3 mg/kg is 63%. Further, the Ki in data set [2] amounted to 33.4 nM; in data set [4], 32.1 nM. Further, the half-life at 0.5 μM in data set [3] was greater than 120 min; in data set [6] it was 103 min; in data set [7], greater than 120 min. For the same compound, the EC50 in data set [5] (Homo sapiens, MX1, 72 h) came to 34.4 nM.
Turning to `Cn1cc(-c2cc(S(=O)(=O)N3CCOCC3)ccc2OCC2CC2)c2cc[nH]c2c1=O` [Example 286, 4-[2-(cyclopropylmethoxy)-5-(morpholin-4-ylsulfonyl)phenyl]-6-methyl-1,6-dihydro-7H-pyrrolo[2,3-c]pyridin-7-one], the inhibition in vivo at 3 mg/kg in data set [1] turned out to be 57%. Moreover, the Ki is 12.1 nM in data set [2] and 5.4 nM in data set [4]. For the same compound, the half-life at 0.5 μM in data set [3] came to 10 min; in data set [6] it was 19 min; in data set [7] it was 11 min. Moreover, the EC50 in data set [5] (Homo sapiens, MX1, 72 h) was 74.6 nM.
In the case of `Cn1cc(-c2cc(NS(C)(=O)=O)ccc2Oc2ccccc2C(F)(F)F)c2cc[nH]c2c1=O` [Example 32, N-{3-(6-methyl-7-oxo-6,7-dihydro-1H-pyrrolo[2,3-c]pyridin-4-yl)-4-[2-(trifluoromethyl)phenoxy]phenyl}methanesulfonamide], in data set [1], the inhibition in vivo at 3 mg/kg amounted to 69%. For the same compound, the inhibition constant (Ki) in data set [2] came out at 16 nM; in data set [4] it was 7.5 nM. Also, the half-life at 0.5 μM in data set [3] came out at 24 min; in data set [6] it was 82 min; in data set [7], 32 min. The EC50 in data set [5] (Homo sapiens, MX1, 72 h) was determined as 83.3 nM.
As for `Cn1cc(-c2cc(NS(C)(=O)=O)ccc2Oc2ccc(F)cc2Cl)c2cc[nH]c2c1=O` [Example 34, N-[4-(2-chloro-4-fluorophenoxy)-3-(6-methyl-7-oxo-6,7-dihydro-1H-pyrrolo[2,3-c]pyridin-4-yl)phenyl]methanesulfonamide], the inhibition in vivo at 3 mg/kg in data set [1] was found to be 78%. For the same compound, the Ki in data set [2] turned out to be 3.5 nM; in data set [4] it was 2.1 nM. For the same compound, the half-life at 0.5 μM in data set [3] is 37 min; in data set [6], 42 min; in data set [7], 35 min. Further, the EC50 in data set [5] (Homo sapiens, MX1, 72 h) stood at 26.8 nM.
Turning to `CCS(=O)(=O)c1ccc(OCC2CC2(F)F)c(-c2cn(C)c(=O)c3[nH]ccc23)c1` (stereo not shown) [Example 240, 4-{2-[(2,2-difluorocyclopropyl)methoxy]-5-(ethylsulfonyl)phenyl}-6-methyl-1,6-dihydro-7H-pyrrolo[2,3-c]pyridin-7-one], in data set [1], the inhibition in vivo at 3 mg/kg is 62%. In addition, the inhibitory constant (Ki) was determined as 2 nM in data set [2] and 2.8 nM in data set [4]. In addition, the figures for the half-life at 0.5 μM in data set [3], in data set [6] and in data set [7] were greater than 120 min, greater than 120 min and 47 min, respectively. In addition, the EC50 in data set [5] (Homo sapiens, MX1, 72 h) was found to be 11.5 nM.
Regarding `CCS(=O)(=O)c1ccc(OC2CCC(C)(O)CC2)c(-c2cn(C)c(=O)c3[nH]ccc23)c1` (stereo not drawn) [Example 212, 4-{5-(ethylsulfonyl)-2-[(trans-4-hydroxy-4-methylcyclohexyl)oxy]phenyl}-6-methyl-1,6-dihydro-7H-pyrrolo[2,3-c]pyridin-7-one], in data set [1], the “Inhibition of LPS induced IL-6 production in Mice, % inhibition at 3 mg/kg” value stood at 47%. The figures for the inhibitory constant (Ki) in data set [2] and in data set [4] were 1.8 nM and 1.3 nM, respectively. Further, the “Stability in human liver microsomes (t1/2 in minutes)” value in data set [3] amounted to 69 min. Also, the EC50 in data set [5] stood at 7.3 nM. In data set [6] (rat, microsomes, pH 7.4), the “Stability in rat liver microsomes (t1/2 in minutes)” value was 67 min. The “Stability in mouse liver microsomes (t1/2 in minutes)” value in data set [7] (mouse) amounted to 53 min.
For `Cn1cc(-c2cc(S(C)(=O)=O)ccc2NC2CCCCC2)c2cc[nH]c2c1=O` [Example 147, 4-[2-(cyclohexylamino)-5-(methylsulfonyl)phenyl]-6-methyl-1,6-dihydro-7H-pyrrolo[2,3-c]pyridin-7-one], in data set [1], the inhibition in vivo at 3 mg/kg was found to be 61%. Also, the Ki is 2.1 nM in data set [2] and 1.1 nM in data set [4]. In addition, the results for the half-life at 0.5 μM in data set [3], in data set [6] and in data set [7] were 11 min, 8 min and 32 min, respectively. For the same compound, in data set [5] (Homo sapiens, MX1, 72 h), the EC50 was determined as 14.8 nM.
Consider `CC(C)C[C@H](NC(=O)[C@H](Cc1ccccc1)NC(=O)c1cnccn1)B(O)O` [Bortezomib], for which the change in vivo at 1 mg/kg in data set [8] (read-out: % TGD (tumor growth delay), OPM-2) stood at 93%. Moreover, the inhibition in vivo at 1 mg/kg in data set [8] (read-out: % TGI (tumor growth inhibition), OPM-2) is 80%.
